Source: patent US20250195530A1, “POLQ INHIBITORS” (ASTRAZENECA AB, priority 2022, published 2025)

Tests used:
[1] = test system: DLD-1 cells; test: Inhibition of proliferation, DLD-1 BRCA2 wt control (Cell Titre Glo 3D); assay type: cell-based; conditions: mean; for POLQ PD Prolif Lumin DLD1 mean pIC50: DLD1 BRCA2 wt; for IC50: Homo sapiens, DLD-1, DLD1 BRCA2 wt, read-out: POLQ PD Prolif Lumin DLD1 mean pIC50 (converted)
Procedure, shortened: (§1)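 Wild-type DLD-1 serves as the control for non-specific toxicity, and BRCA2-null DLD-1 as the homologous-recombination-deficient line. Both grew with compound from 10 μM down to 0.51 nM, re-dosed after 6 days. Luminescent ATP content (CellTiter-Glo 3D) was read after 7 or 12 days, respectively, to give IC50 values.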

[2] = test system: DLD-1 BRCA2−/− cells; test: Homologous recombination synthetic lethal inhibition of proliferation, DLD-1 BRCA2-/- (Cell Titre Glo 3D); assay type: cell-based; conditions: mean; for POLQ PD Prolif Lumin BRCA2 −/− mean pIC50: DLD-1 BRCA2 −/−; for IC50: Homo sapiens, DLD-1, DLD-1 BRCA2 −/−, read-out: POLQ PD Prolif Lumin BRCA2 −/− mean pIC50 (converted)
Procedure, shortened: as §1

Compound | POLQ PD Prolif Lumin DLD1 mean pIC50 [1] | IC50 [1] [nM] | POLQ PD Prolif Lumin BRCA2 −/− mean pIC50 [2] | IC50 [2] [nM]
COc1ccc(Cl)cc1Cn1c(-c2ccc(O[C@H]3CC[C@@H](C(=O)O)CC3)cc2Cl)nc2c(OC3(C)CC3)ncnc21 [Example U40, (1s,4s)-4-(3-chloro-4-(9-(5-chloro-2-methoxybenzyl)-6-(1-methylcyclopropoxy)-9H-purin-8-yl)phenoxy)cyclohexane-1-carboxylic acid] | <5.1 |  | 7 | 
COc1ccc(Cl)cc1Cn1c(-c2ccc(O[C@H]3CC[C@H](C(=O)O)CC3)cc2Cl)nc2c(OC3(C)CC3)ncnc21 [Example U43, (1r,4r)-4-(3-chloro-4-(9-(5-chloro-2-methoxybenzyl)-6-(1-methylcyclopropoxy)-9H-purin-8-yl)phenoxy)cyclohexane-1-carboxylic acid] | <5.0 |  | 7.2 | 
COc1ccc(Cl)cc1Cn1c(-c2cccc(O[C@H]3CC[C@@H](C(=O)O)CC3)c2Cl)nc2c(OC3(C)CC3)ncnc21 [Example U50, (1s,4s)-4-(2-chloro-3-(9-(5-chloro-2-methoxybenzyl)-6-(1-methylcyclopropoxy)-9H-purin-8-yl)phenoxy)cyclohexane-1-carboxylic acid] | <5.0 |  | 7.6 | 
COc1ccc(Cl)cc1Cn1c(-c2cccc(O[C@H]3C[C@H](C(=O)O)C3)c2Cl)nc2c(OC3(C)CC3)ncnc21 [Example U51, (1r,3r)-3-(2-chloro-3-(9-(5-chloro-2-methoxybenzyl)-6-(1-methylcyclopropoxy)-9H-purin-8-yl)phenoxy)cyclobutane-1-carboxylic acid] | <5.0 |  | 7.2 | 
COc1ccc(Cl)cc1Cn1c(-c2cccc(CCCC(=O)O)c2Cl)nc2c(OC3(C)CC3)ncnc21 [Example U62, 4-(2-chloro-3-(9-(5-chloro-2-methoxybenzyl)-6-(1-methylcyclopropoxy)-9H-purin-8-yl)phenyl)butanoic acid] |  | > 10000 |  | 50.1
CC1(Oc2ncnc3c2nc(-c2ccc(F)c(OCCC(=O)O)c2Cl)n3Cc2cccc(Cl)c2)CC1 [Example U65, 3-(2-chloro-3-(9-(3-chlorobenzyl)-6-(1-methylcyclopropoxy)-9H-purin-8-yl)-6-fluorophenoxy)propanoic acid] |  | > 10000 |  | 251
COc1ccc(F)cc1Cn1c(-c2cccc(O[C@H]3CC[C@H](C(=O)O)CC3)c2Cl)nc2c(OC3(C)CC3)ncnc21 [Example U69, (1r,4r)-4-(2-chloro-3-(9-(5-fluoro-2-methoxybenzyl)-6-(1-methylcyclopropoxy)-9H-purin-8-yl)phenoxy)cyclohexane-1-carboxylic acid] | <5.0 |  | 7.4 | 
COc1ccc(Cl)cc1Cn1c(-c2cccc(OCC[C@H](C)C(=O)O)c2Cl)nc2c(OC3(C)CC3)ncnc21 [Example U73, (S)-4-(2-chloro-3-(9-(5-chloro-2-methoxybenzyl)-6-(1-methylcyclopropoxy)-9H-purin-8-yl)phenoxy)-2-methylbutanoic acid] |  | > 10000 |  | 2
COc1ccc(F)cc1Cn1c(-c2cccc(O[C@H]3C[C@@H](C(=O)O)C3)c2Cl)nc2c(OC3(C)CC3)ncnc21 [Example U74, (1s,3s)-3-(2-chloro-3-(9-(5-fluoro-2-methoxybenzyl)-6-(1-methylcyclopropoxy)-9H-purin-8-yl)phenoxy)cyclobutane-1-carboxylic acid] | <5.0 |  | 7.2 | 
COc1ccc(Cl)cc1Cn1c(-c2cccc(OCC[C@@H](C)C(=O)O)c2Cl)nc2c(OC3(C)CC3)ncnc21 [Example U75, (R)-4-(2-chloro-3-(9-(5-chloro-2-methoxybenzyl)-6-(1-methylcyclopropoxy)-9H-purin-8-yl)phenoxy)-2-methylbutanoic acid] |  | > 10000 |  | 2
COc1ccc(C(F)(F)F)cc1Cn1c(-c2ccc(OCC[C@H](C)C(=O)O)cc2Cl)nc2c(OC3(C)CC3)ncnc21 [Example U76, (S)-4-(3-chloro-4-(9-(2-methoxy-5-(trifluoromethyl)benzyl)-6-(1-methylcyclopropoxy)-9H-purin-8-yl)phenoxy)-2-methylbutanoic acid] |  | > 10000 |  | 200

The next lines start with results.

POLQ PD Prolif Lumin DLD1 mean pIC50 [1] | IC50 [1] [nM] | Compound | POLQ PD Prolif Lumin BRCA2 −/− mean pIC50 [2] | IC50 [2] [nM]
 | 6310 | COc1ccc(Cl)cc1Cn1c(-c2ccc(OCCCC(C)(C)C(=O)O)cc2Cl)nc2c(OC3(C)CC3)ncnc21 [Example U47, 5-(3-chloro-4-(9-(5-chloro-2-methoxybenzyl)-6-(1-methylcyclopropoxy)-9H-purin-8-yl)phenoxy)-2,2-dimethylpentanoic acid] |  | 31.6
 | > 10000 | COc1ccc(Cl)cc1Cn1c(-c2ccc(OCCOCC(=O)O)cc2Cl)nc2c(OC3(C)CC3)ncnc21 [Example U48, 2-(2-(3-chloro-4-(9-(5-chloro-2-methoxybenzyl)-6-(1-methylcyclopropoxy)-9H-purin-8-yl)phenoxy)ethoxy)acetic acid] |  | 631
 | > 10000 | COc1ccc(Cl)cc1Cn1c(-c2cccc(OCCOCC(=O)O)c2Cl)nc2c(OC3(C)CC3)ncnc21 [Example U52, 2-(2-(2-chloro-3-(9-(5-chloro-2-methoxybenzyl)-6-(1-methylcyclopropoxy)-9H-purin-8-yl)phenoxy)ethoxy)acetic acid] |  | 50.1
 | > 10000 | COc1ccc(Cl)cc1Cn1c(-c2ccc(OCCOC(C)(C)C(=O)O)cc2Cl)nc2c(OC3(C)CC3)ncnc21 [Example U54, 2-(2-(3-chloro-4-(9-(5-chloro-2-methoxybenzyl)-6-(1-methylcyclopropoxy)-9H-purin-8-yl)phenoxy)ethoxy)-2-methylpropanoic acid] |  | 126
 | > 10000 | COc1ccc(Cl)cc1Cn1c(-c2cccc(CCC(=O)O)c2Cl)nc2c(OC3(C)CC3)ncnc21 [Example U64, 3-(2-chloro-3-(9-(5-chloro-2-methoxybenzyl)-6-(1-methylcyclopropoxy)-9H-purin-8-yl)phenyl)propanoic acid] |  | 100
 | > 10000 | COc1ccc(F)cc1Cn1c(-c2ccc(OCC[C@@H](C)C(=O)O)cc2Cl)nc2c(OC3(C)CC3)ncnc21 [Example U67, (R)-4-(3-chloro-4-(9-(5-fluoro-2-methoxybenzyl)-6-(1-methylcyclopropoxy)-9H-purin-8-yl)phenoxy)-2-methylbutanoic acid] |  | 50.1
 | > 10000 | COc1ccc(F)cc1Cn1c(-c2ccc(OCC[C@H](C)C(=O)O)cc2Cl)nc2c(OC3(C)CC3)ncnc21 [Example U68, (S)-4-(3-chloro-4-(9-(5-fluoro-2-methoxybenzyl)-6-(1-methylcyclopropoxy)-9H-purin-8-yl)phenoxy)-2-methylbutanoic acid] |  | 39.8
 | > 10000 | C[C@H](CCOc1ccc(-c2nc3c(OC4(C)CC4)ncnc3n2Cc2cc(Cl)ccc2C#N)c(Cl)c1)C(=O)O [Example U81, (R)-4-(3-chloro-4-(9-(5-chloro-2-cyanobenzyl)-6-(1-methylcyclopropoxy)-9H-purin-8-yl)phenoxy)-2-methylbutanoic acid] |  | 20
 | > 10000 | C[C@@H](CCOc1ccc(-c2nc3c(OC4(C)CC4)ncnc3n2Cc2cc(Cl)ccc2C#N)c(Cl)c1)C(=O)O [Example U82, (S)-4-(3-chloro-4-(9-(5-chloro-2-cyanobenzyl)-6-(1-methylcyclopropoxy)-9H-purin-8-yl)phenoxy)-2-methylbutanoic acid] |  | 50.1
